Patent publication US9365540B2, “Benzimidazole derivatives as MCH receptor antagonists” (Takeda Pharmaceutical Company Limited, priority 2012, dated 2016)

Tests used:
[1] = molecular target: T1, human MCH receptor 1 (MCHR1) (Homo sapiens, UniProt Q99705); assay: human MCH receptor 1 (MCHR1) competitive binding assay with [125I]-MCH(4-19); conditions: test compound 0.1 μM, human MCHR1-expressing CHO cell membrane fraction, read-out: Binding inhibition rate % (0.1 μM)
T1 construct: expressed in transfected cells; host or cells: CHO cell clone 57 (membrane fraction)
Summary of the method: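 Percent binding inhibition by 0.1 μM test compound, corrected for nonspecific binding defined with unlabeled MCH(1-19), is read by scintillation after filtration onto PEI-treated GF/C filters. The reaction runs 1 hr at room temperature with [125I]-MCH(4-19) and human MCHR1-CHO cell membranes in Tris-HCl pH 7.5 buffer containing EDTA and protease inhibitors.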

human MCHR1 = molecular target: T2, human MCHR1 (Homo sapiens, UniProt Q99705); assay: MCH receptor 1 antagonistic activity, Ca2+ mobilization assay; type: cell-based; conditions: CHO, test compound 0.1 μM; human MCHR1-expressing CHO cells (clone #4); ligand MCH(4-19) 2 nM; read-out: Inhibitory rate % (0.1 μM)
T2 construct: expressed in transfected cells; host or cells: CHO dhfr- cells, clone #4
Description: Measurement of MCH Receptor 1 Antagonistic Activity of Test Compound Using Ca^2+ Mobilization Assay Using an expression vector plasmid introduced with human MCHR1 gene for expression in animal cells, human MCHR1 gene was introduced into CHO cells (CHO dhfr^−) by Lipofectamine LTX (Invitrogen). The cells were cultured in selection MEMα medium [445 mL of MEMα medium without nucleic acid and added with 5 mL of Penicillin-Streptomycin (Invitrogen) and 50 mL of dialyzed fetal bovine serum]. Colony 24 clones grown in the selection medium, which were human MCHR1 gene-expressing CHO cell candidates, were selected. […] In the following test, this human MCHR1-expressing CHO cell (clone #4) was used. An integrated dispensing function fluorometer (CellLux, PerkinElmer) was used for Ca^2+ mobilization assay. […] The medium was removed, and the cells were washed with phosphate buffered saline (PBS). […] The plate was set on a plate reader. […] The inhibition rates (%) of test compounds (0.1 μM) as antagonist activity measured using human MCHR1-expressing CHO cells (clone #4) are shown in the following Table 3.

T2 sequence (Q99705 whole entry): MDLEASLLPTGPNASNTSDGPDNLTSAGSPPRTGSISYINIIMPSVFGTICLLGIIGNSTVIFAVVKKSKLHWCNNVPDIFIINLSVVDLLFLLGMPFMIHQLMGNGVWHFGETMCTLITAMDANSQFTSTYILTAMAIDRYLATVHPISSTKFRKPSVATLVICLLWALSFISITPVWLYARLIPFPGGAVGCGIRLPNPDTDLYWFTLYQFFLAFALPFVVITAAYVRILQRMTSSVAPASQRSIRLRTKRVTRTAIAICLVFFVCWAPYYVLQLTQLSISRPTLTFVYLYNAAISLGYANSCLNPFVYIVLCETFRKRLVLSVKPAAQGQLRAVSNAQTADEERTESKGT
T1 sequence (Q99705 whole entry): as above

Compound | inhibition at 0.1 µM [1] [%] | inhibition at 0.1 µM (human MCHR1) [%]
CCc1nc2ccc(-n3ccc(OCc4csc(F)c4)cc3=O)cc2n1C [Example 231, 1-(2-Ethyl-1-methyl-1H-benzimidazol-6-yl)-4-((5-fluoro-3-thienyl)methoxy)pyridin-2(1H)-one] | 71 | 95
Cn1c(C2CC2)nc2ccc(-n3ccc(OCc4ccccc4F)cc3=O)cc21 [Example 71, 1-(2-Cyclopropyl-1-methyl-1H-benzimidazol-6-yl)-4-((2-fluorobenzyl)oxy)pyridin-2(1H)-one] | 72 | 43
Cn1c(C2CC2)nc2ccc(-n3ccc(OCc4cc(Br)c(F)s4)cc3=O)cc21 [Example 244, 4-((4-Bromo-5-fluoro-2-thienyl)methoxy)-1-(2-cyclopropyl-1-methyl-1H-benzimidazol-6-yl)pyridin-2(1H)-one] | 83 | 98
Cn1c(C2CC2)nc2ccc(-n3ccc(OCc4nc(C5CC5)cs4)cc3=O)cc21 [Example 277, 1-(2-Cyclopropyl-1-methyl-1H-benzimidazol-6-yl)-4-((4-cyclopropyl-1,3-thiazol-2-yl)methoxy)pyridin-2(1H)-one] | 55 | 77
Cn1c(C2CC2)nc2ccc(-n3ccc(OCc4ccc(C(F)F)s4)cc3=O)cc21 [Example 248, 1-(2-Cyclopropyl-1-methyl-1H-benzimidazol-6-yl)-4-((5-(difluoromethyl)-2-thienyl)methoxy)pyridin-2(1H)-one] | 79 | 97
Cn1c(C2CC2)nc2ccc(-n3ccc(OCc4cc(Br)cs4)cc3=O)cc21 [Example 240, 4-((4-Bromo-2-thienyl)methoxy)-1-(2-cyclopropyl-1-methyl-1H-benzimidazol-6-yl)pyridin-2(1H)-one] | 91 | 99
Cn1c(C2CC2)nc2ccc(-n3ccc(OCc4ccc(C(F)(F)F)s4)cc3=O)cc21 [Example 159, 1-(2-Cyclopropyl-1-methyl-1H-benzimidazol-6-yl)-4-((5-(trifluoromethyl)thiophen-2-yl)methoxy)pyridin-2(1H)-one] | 87 | 107
CCc1nc2ccc(-n3ccc(OCc4nc(C(F)F)cs4)cc3=O)cc2n1C [Example 284, 4-((4-(Difluoromethyl)-1,3-thiazol-2-yl)methoxy)-1-(2-ethyl-1-methyl-1H-benzimidazol-6-yl)pyridin-2(1H)-one] | 37 | 83
CCc1nc2ccc(-n3ccc(OCc4csc(C(F)F)n4)cc3=O)cc2n1C [Example 288, 4-((2-(Difluoromethyl)-1,3-thiazol-4-yl)methoxy)-1-(2-ethyl-1-methyl-1H-benzimidazol-6-yl)pyridin-2(1H)-one] | 40 | 87
CC(C)Cc1nc2ccc(-n3ccc(OCc4ccc(Cl)cc4)cc3=O)cc2n1C [Example 37, 4-((4-Chlorobenzyl)oxy)-1-(2-isobutyl-1-methyl-1H-benzimidazol-6-yl)pyridin-2(1H)-one] | 59 | 51
Cn1c(C2CC2)nc2ccc(-n3ccc(OCc4ccsc4)cc3=O)cc21 [Example 75, 1-(2-Cyclopropyl-1-methyl-1H-benzimidazol-6-yl)-4-(3-thienylmethoxy)pyridin-2(1H)-one] | 84 | 80
Cn1c(C2CC2)nc2ccc(-n3ccc(OCc4cccc(F)c4)cc3=O)cc21 [Example 72, 1-(2-Cyclopropyl-1-methyl-1H-benzimidazol-6-yl)-4-((3-fluorobenzyl)oxy)pyridin-2(1H)-one] | 80 | 58
Cc1nc2ccc(-n3ccc(OCc4ccccc4)cc3=O)cc2n1C [Example 289, 4-(Benzyloxy)-1-(1,2-dimethyl-1H-benzimidazol-6-yl)pyridin-2(1H)-one] | 48 | 100

Other lines, results leading:

inhibition at 0.1 µM [1] [%] | inhibition at 0.1 µM (human MCHR1) [%] | Compound
64 | 99 | Cc1c(C2CC2)nc2ccc(-n3ccc(OCc4ccc(C(F)(F)F)o4)cc3=O)cn12 [Example 180, 1-(2-Cyclopropyl-3-methylimidazo[1,2-a]pyridin-6-yl)-4-((5-(trifluoromethyl)-2-furyl)methoxy)pyridin-2(1H)-one]
79 | 35 | Cc1c(C2CC2)nc2ccc(-n3ccc(OCc4ccc(Cl)cc4)nc3=O)cn12 [Example 70, 4-((4-Chlorobenzyl)oxy)-1-(2-cyclopropyl-3-methylimidazo[1,2-a]pyridin-6-yl)pyrimidin-2(1H)-one]
78 | 63 | CCCc1nc2ccc(-n3ccc(OCc4ccc(Cl)cc4)cc3=O)cc2n1C [Example 103, 4-((4-Chlorobenzyl)oxy)-1-(1-methyl-2-propyl-1H-benzimidazol-6-yl)pyridin-2(1H)-one]
53 | 78 | Cc1c(C2CC2)nc2ccc(-n3ncc(OCc4ccc(Cl)cc4)cc3=O)cn12 [Example 55, 5-((4-Chlorobenzyl)oxy)-2-(2-cyclopropyl-3-methylimidazo[1,2-a]pyridin-6-yl)pyridazin-3(2H)-one]
23 | 62 | Cc1c(C2CC2)nc2ccc(-n3ccc(COc4ccc(F)cc4)cc3=O)cn12 [Example 170, 1-(2-Cyclopropyl-3-methylimidazo[1,2-a]pyridin-6-yl)-4-((4-fluorophenoxy)methyl)pyridin-2(1H)-one]
82 | 100 | Cc1c(C2CC2)nc2ccc(-n3ccc(OCc4nc(Br)cs4)cc3=O)cn12 [Example 194, 4-((4-Bromo-1,3-thiazol-2-yl)methoxy)-1-(2-cyclopropyl-3-methylimidazo[1,2-a]pyridin-6-yl)pyridin-2(1H)-one]
97 | 97 | Cc1c(C2CC2)nc2ccc(-n3ccc(OCc4csc(Br)c4)cc3=O)cn12 [Example 177, 4-((5-Bromo-3-thienyl)methoxy)-1-(2-cyclopropyl-3-methylimidazo[1,2-a]pyridin-6-yl)pyridin-2(1H)-one]
75 | 97 | CCc1nc2ccc(-n3ccc(OCc4ccc(Cl)cc4)cc3=O)cc2n1C [Example 102, 4-((4-Chlorobenzyl)oxy)-1-(2-ethyl-1-methyl-1H-benzimidazol-6-yl)pyridin-2(1H)-one]
79 | 98 | Cc1c(C2CC2)nc2ccc(-n3ccc(OCc4ccsc4)cc3=O)cn12 [Example 133, 1-(2-Cyclopropyl-3-methylimidazo[1,2-a]pyridin-6-yl)-4-(3-thienylmethoxy)pyridin-2(1H)-one]
84 | 103 | Cc1c(C2CC2)nc2ccc(-n3ccc(OCc4cc(Cl)cs4)cc3=O)cn12 [Example 168, 4-((4-Chlorothiophen-2-yl)methoxy)-1-(2-cyclopropyl-3-methylimidazo[1,2-a]pyridin-6-yl)pyridin-2(1H)-one]
80 | 77 | Cn1c(C2CC2)nc2ccc(-n3ccc(OCc4cccc(Cl)c4)cc3=O)cc21 [Example 127, 4-((3-Chlorobenzyl)oxy)-1-(2-cyclopropyl-1-methyl-1H-benzimidazol-6-yl)pyridin-2(1H)-one]
